Inhibition data for 31 compounds are collected here from patent publication US20150329558A1, “FUSED HETEROCYCLIC COMPOUNDS AS ION CHANNEL MODULATORS” (Gilead Sciences, Inc., priority 2011, published 2015).

Structures are written as SMILES.

The target in this test is wild-type human cardiac sodium channel, hNav1.5 (late INa) (Homo sapiens, UniProt Q14524). As to the kind of experiment: Late INa screening assay (QPatch whole cell patch clamp). It is filed as cell-based. The settings on record: percent block of late INa, compound at 1 μM, 10 μM Tefluthrin, HEK293 hNav1.5; read-out: Late INa 1 μM. On the procedure: The late sodium current (Late INa) and peak sodium current (Peak INa) assays are performed on an automated electrophysiology platform, QPatch 16× (Sophion Bioscience, Copenhagen, Denmark), which uses the whole cell patch clamp technique to measure currents through the cell membrane of up to 16 cells at a time. The assay uses an HEK293 (human embryonic kidney) cell line heterologously expressing the wild-type human cardiac sodium channel, hNav1.5, purchased from Millipore (Billerica, Mass.). No beta subunits were coexpressed with the Na channel alpha subunit. Cells are maintained with standard tissue culture procedures and stable channel expression is maintained with 400 μg/mL Geneticin in the culture medium. […] Experiments are carried out at 23-25° C. For both the Late INa and Peak INa assays, series resistance compensation is set to 100% and series resistance and whole-cell compensation are performed automatically. Currents are digitized at 25 kHz and low-pass filtered at 12 kHz and 10 kHz for the late and peak INa assays, respectively. Currents through open sodium channels are automatically recorded and stored in the Sophion Bioscience Oracle database (Sophion Bioscience, Copehagen, Denmark). Analysis is performed using QPatch Assay and database software and data are compiled in Excel. Compound stocks are routinely made by the Gilead Sample Bank in plastic vials to 10 mM in dimethyl sulfoxide (DMSO). In some cases, when compounds are not soluble in DMSO, they are made in 100% ethanol. Stocks are sonicated as necessary. […] The intracellular solution used to perfuse the inside of the cells for both the Late INa and Peak INa assays contains: 120 mM CsF, 20 mM CsCl, 5 mM EGTA, 5 mM HEPES and pH adjusted to 7.4 with CsOH. Compounds are diluted in extracellular solution to 1 μM in glass vials and then transferred to glass well plates before robotic addition to the cells. […] For the Late INa assay, sodium channels are activated every 10 seconds (0.1 Hz) by depolarizing the cell membrane to −20 mV for 250 milliseconds (ms) from a holding potential of −120 mV. In response to a −20 mV voltage step, typical hNav1.5 sodium currents activate rapidly to a peak negative current and then inactivate nearly completely within 3-4 ms. All compounds were tested to determine their activity in blocking the late sodium current. Late INa was generated by adding 10 μM Tefluthrin (pyrethroid) to the extracellular solution while recording Na currents. To confirm the block of late INa observed using the automated screening method, a second late INa enhancer (ATX-II) and the manual patch clamp method were used. ATX-II and tefluthrin occupy distinct, non-overlapping binding sites and modify Na^+ channel function differently to increase late INa. […] For the purposes of the screening, late INa is defined as the mean current between 225 ms and 250 ms after stepping to −20 mV to activate Na channels. […] Results are reported as percent block of late INa.
Sequence of wild-type human cardiac sodium channel, hNav1.5 (late INa) (Q14524 whole entry): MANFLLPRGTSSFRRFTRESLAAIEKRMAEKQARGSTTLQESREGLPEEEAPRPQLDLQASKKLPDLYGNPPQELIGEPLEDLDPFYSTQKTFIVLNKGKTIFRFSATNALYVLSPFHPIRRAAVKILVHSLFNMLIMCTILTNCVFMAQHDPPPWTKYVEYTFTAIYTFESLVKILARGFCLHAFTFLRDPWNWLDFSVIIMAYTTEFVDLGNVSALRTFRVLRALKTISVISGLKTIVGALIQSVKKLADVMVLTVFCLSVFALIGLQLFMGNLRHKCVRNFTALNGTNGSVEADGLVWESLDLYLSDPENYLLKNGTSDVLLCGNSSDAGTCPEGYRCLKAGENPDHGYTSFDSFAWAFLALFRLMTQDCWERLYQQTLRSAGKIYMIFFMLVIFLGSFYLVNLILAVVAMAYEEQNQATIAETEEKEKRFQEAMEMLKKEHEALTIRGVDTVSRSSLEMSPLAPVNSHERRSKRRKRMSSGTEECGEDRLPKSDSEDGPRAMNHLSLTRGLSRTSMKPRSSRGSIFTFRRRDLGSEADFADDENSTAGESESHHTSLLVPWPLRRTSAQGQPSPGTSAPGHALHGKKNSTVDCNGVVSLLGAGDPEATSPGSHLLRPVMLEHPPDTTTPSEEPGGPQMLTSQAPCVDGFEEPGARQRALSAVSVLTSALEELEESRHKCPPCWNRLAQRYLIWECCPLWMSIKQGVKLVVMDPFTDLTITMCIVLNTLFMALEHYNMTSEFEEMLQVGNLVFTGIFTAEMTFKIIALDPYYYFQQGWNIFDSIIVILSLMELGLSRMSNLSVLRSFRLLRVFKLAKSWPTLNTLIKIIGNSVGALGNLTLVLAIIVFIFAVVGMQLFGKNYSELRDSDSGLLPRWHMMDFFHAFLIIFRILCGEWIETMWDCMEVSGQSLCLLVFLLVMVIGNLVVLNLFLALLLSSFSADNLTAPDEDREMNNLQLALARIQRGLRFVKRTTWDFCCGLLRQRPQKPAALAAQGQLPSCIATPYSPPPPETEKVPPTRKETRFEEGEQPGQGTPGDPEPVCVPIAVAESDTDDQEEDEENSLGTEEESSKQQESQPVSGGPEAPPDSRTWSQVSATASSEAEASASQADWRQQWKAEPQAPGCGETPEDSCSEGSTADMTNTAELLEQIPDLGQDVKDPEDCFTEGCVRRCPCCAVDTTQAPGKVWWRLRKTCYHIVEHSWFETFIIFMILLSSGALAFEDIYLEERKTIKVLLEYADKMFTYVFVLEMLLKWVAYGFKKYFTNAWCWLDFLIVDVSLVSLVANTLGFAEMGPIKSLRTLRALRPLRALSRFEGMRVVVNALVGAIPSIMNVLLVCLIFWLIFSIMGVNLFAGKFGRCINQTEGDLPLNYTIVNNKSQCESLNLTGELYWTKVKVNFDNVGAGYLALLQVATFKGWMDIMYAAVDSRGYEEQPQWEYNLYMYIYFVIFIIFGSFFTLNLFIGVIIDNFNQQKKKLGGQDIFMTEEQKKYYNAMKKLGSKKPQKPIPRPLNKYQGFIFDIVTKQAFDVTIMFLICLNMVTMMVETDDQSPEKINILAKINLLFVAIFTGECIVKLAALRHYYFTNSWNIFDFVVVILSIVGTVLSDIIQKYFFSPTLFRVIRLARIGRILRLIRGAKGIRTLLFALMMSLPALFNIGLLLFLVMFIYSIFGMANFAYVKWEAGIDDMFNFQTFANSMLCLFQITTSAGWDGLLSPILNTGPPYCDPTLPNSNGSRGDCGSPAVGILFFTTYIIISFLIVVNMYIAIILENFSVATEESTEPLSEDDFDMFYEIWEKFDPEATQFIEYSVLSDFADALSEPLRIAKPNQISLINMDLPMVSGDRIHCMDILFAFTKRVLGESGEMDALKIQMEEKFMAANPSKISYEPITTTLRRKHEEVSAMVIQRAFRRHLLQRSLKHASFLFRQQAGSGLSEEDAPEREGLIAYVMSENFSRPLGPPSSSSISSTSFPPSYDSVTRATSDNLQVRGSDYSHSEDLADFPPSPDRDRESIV
A general note: In patch-clamp work, channel activity is measured electrically.
On to `Cc1nc(Cn2nnc3ccc(-c4ccc(OCC(F)(F)F)nc4)cc3c2=O)no1` [Compound V-2, 3-((5-methyl-1,2,4-oxadiazol-3-yl)methyl)-6-(6-(2,2,2-trifluoroethoxy)pyridin-3-yl)benzo[d][1,2,3]triazin-4(3H)-one], for which the inhibition at 1 µM is 17%.
The value for `O=c1c2cc(-c3ccc(C(F)(F)F)nc3)ccc2nnn1CCOc1ncccn1` [Compound V-11, 3-(2-(pyrimidin-2-yloxy)ethyl)-6-(6-(trifluoromethyl)pyridin-3-yl)benzo[d][1,2,3]triazin-4(3H)-one] was 22%.
Then `O=c1c2cc(-c3ccc(OC(F)(F)F)cc3)ccc2nnn1Cc1cc(-c2ccccc2)no1` [II-10, 3-((3-phenylisoxazol-5-yl)methyl)-6-(4-(trifluoromethoxy)phenyl)benzo[d][1,2,3]triazin-4(3H)-one], with 21%.
The value for `O=c1c2cc(-c3ccc(OC(F)(F)F)cc3)ccc2nnn1Cc1nc(Cc2ccccc2)no1` [II-12, 3-((3-benzyl-1,2,4-oxadiazol-5-yl)methyl)-6-(4-(trifluoromethoxy)phenyl)benzo[d][1,2,3]triazin-4(3H)-one] was 21%; that for `O=c1c2cc(-c3ccc(OC(F)(F)F)cc3)ccc2nnn1Cn1nnnc1-c1ccccc1` [II-21, 3-((5-phenyl-1H-tetrazol-1-yl)methyl)-6-(4-(trifluoromethoxy)phenyl)benzo[d][1,2,3]triazin-4(3H)-one] was 70%; that for `O=c1c2cc(-c3ccc(OC(F)(F)F)cc3)ccc2nnn1C1CC1` [II-22, 3-cyclopropyl-6-(4-(trifluoromethoxy)phenyl)benzo[d][1,2,3]triazin-4(3H)-one] was 21%.
For `Cc1nc(Cn2nnc3ccc(-c4ccc(OC(F)(F)F)cc4)cc3c2=O)oc1C` [II-23, 3-((4,5-dimethyloxazol-2-yl)methyl)-6-(4-(trifluoromethoxy)phenyl)benzo[d][1,2,3]triazin-4(3H)-one], the inhibition at 1 µM stood at 23%.
`O=c1c2cc(-c3ccc(OC(F)(F)F)cc3)ccc2nnn1Cn1nc2ccccc2n1` [II-28, 3-((2H-benzo[d][1,2,3]triazol-2-yl)methyl)-6-(4-(trifluoromethoxy)phenyl)benzo[d][1,2,3]triazin-4(3H)-one]: the inhibition at 1 µM came out at 19%.
The value for `N#CC1(n2nnc3ccc(-c4ccc(OC(F)(F)F)cc4)cc3c2=O)CC1` [II-33, 1-(4-oxo-6-(4-(trifluoromethoxy)phenyl)benzo[d][1,2,3]triazin-3 (4H)-yl)cyclopropanecarbonitrile] was 26%.
Take `O=c1c2cc(-c3ccc(OC(F)(F)F)cc3)ccc2nnn1C1CCN(c2ncccn2)CC1` [II-39, 3-(1-(pyrimidin-2-yl)piperidin-4-yl)-6-(4-(trifluoromethoxy)phenyl)benzo[d][1,2,3]triazin-4(3H)-one]: the inhibition at 1 µM is 16%.
`O=c1c2cc(-c3ccc(OC(F)(F)F)cc3)ccc2nnn1Cc1ccccc1` [II-42, 3-benzyl-6-(4-(trifluoromethoxy)phenyl)benzo[d][1,2,3]triazin-4(3H)-one]: the inhibition at 1 µM stood at 23%.
Regarding `O=c1c2cc(-c3ccc(OC(F)(F)F)cc3)ccc2nnn1OCc1ncccn1` [II-56, 3-(pyrimidin-2-ylmethoxy)-6-(4-(trifluoromethoxy)phenyl)benzo[d][1,2,3]triazin-4(3H)-one], the inhibition at 1 µM stood at 22%.
Then `O=c1c2cc(-c3ccc(OC(F)(F)F)cc3)ccc2nnn1CC1(Cn2ccnc2)CC1` [II-58, 3-((1-((1H-imidazol-1-yl)methyl)cyclopropyl)methyl)-6-(4-(trifluoromethoxy)phenyl)benzo[d][1,2,3]triazin-4(3H)-one], with 25%.
Then `O=c1c2cc(-c3ccc(OC(F)(F)F)cc3)ccc2nnn1OCc1cccnc1` [II-59, 3-(pyridin-3-ylmethoxy)-6-(4-(trifluoromethoxy)phenyl)benzo[d][1,2,3]triazin-4(3H)-one], with 22%.
Then `O=C(Cn1nnc2ccc(-c3ccc(Oc4ccc(Cl)cc4)cc3)cc2c1=O)N1CCN(c2ncccn2)CC1` [II-65, 6-(4-(4-chlorophenoxyl)phenyl)-3-(2-oxo-2-(4-(pyrimidin-2-yl)piperazin-1-yl)ethyl)benzo[d][1,2,3]triazin-4(3H)-one], with 19%; and `CC(c1nc(C2CC2)no1)n1nnc2ccc(-c3ccc(OC(F)(F)F)cc3)cc2c1=O` (stereo not shown) [II-79, 3-(1-(3-cyclopropyl-1,2,4-oxadiazol-5-yl)ethyl)-6-(4-(trifluoromethoxy)phenyl)benzo[d][1,2,3]triazin-4(3H)-one], with 54%; and `O=c1c2cc(-c3ccc(OC(F)(F)F)cc3)ccc2cnn1Cc1ccccc1` [III-6, 2-benzyl-7-(4-(trifluoromethoxy)phenyl)phthalazin-1(2H)-one], with 18%.
For the compound `O=c1c2cc(-c3ccc(OC(F)(F)F)cc3)ccc2cnn1CCc1ccccc1` [III-8, 2-phenethyl-7-(4-(trifluoromethoxy)phenyl)phthalazin-1(2H)-one], the inhibition at 1 µM turned out to be 19%.
Then `Cc1nonc1Cn1ncc2ccc(-c3ccc(OC(F)(F)F)cc3)cc2c1=O` [III-11, 2-((4-methyl-1,2,5-oxadiazol-3-yl)methyl)-7-(4-(trifluoromethoxy)phenyl)phthalazin-1 (2H)-one], with 30%; and `N#Cc1cccc(Cn2ncc3ccc(-c4ccc(OC(F)(F)F)cc4)cc3c2=O)n1` [III-12, 6-((1-oxo-7-(4-(trifluoromethoxy)phenyl)phthalazin-2(1H)-yl)methyl)picolinonitrile], with 21%; and `Cn1c(CCn2ncc3ccc(-c4ccc(OC(F)(F)F)cc4)cc3c2=O)nc2ccccc21` [III-25, 2-(2-(1-methyl-1H-benzo[d]imidazol-2-yl)ethyl)-7-(4-(trifluoromethoxy)phenyl)phthalazin-1 (2H)-one], with 16%.
Then `O=c1c2cc(-c3ccc(OC(F)(F)F)cc3)ccc2cnn1CCn1cncn1` [III-26, 2-(2-(1H-1,2,4-triazol-1-yl)ethyl)-7-(4-(trifluoromethoxy)phenyl)phthalazin-1 (2H)-one], with 26%; and `O=c1c2cc(-c3ccc(OC(F)(F)F)cc3)ccc2cnn1CCn1cc(Br)cn1` [III-31, 2-(2-(4-bromo-1H-pyrazol-1-yl)ethyl)-7-(4-(trifluoromethoxy)phenyl)phthalazin-1 (2H)-one], with 27%.
The value for `O=c1c2cc(-c3ccc(OC(F)(F)F)cc3)ccc2cnn1Cc1cc(-c2ccccn2)on1` [III-41, 2-((5-(pyridin-2-yl)isoxazol-3-yl)methyl)-7-(4-(trifluoromethoxy)phenyl)phthalazin-1 (2H)-one] was 24%.
For `O=C1c2cc(C#Cc3ccc(C(F)(F)F)cc3)ccc2CCN1Cc1ncccn1` [IX-4], the inhibition at 1 µM amounted to 20%.
Regarding `O=C1c2cc(C#Cc3ccc(OC(F)(F)F)cc3)ccc2CCN1Cc1ncccn1` [IX-5], the inhibition at 1 µM worked out at 20%.
`O=C(c1ncccn1)N1CCc2ccc(-c3ccc(C(F)(F)F)cc3F)cc2C1` [IX-22, (7-(2-fluoro-4-(trifluoromethyl)phenyl)-3,4-dihydroisoquinolin-2(1H)-yl)(pyrimidin-2-yl)methanone]: the inhibition at 1 µM is 29%.
Consider `O=C(c1ncccn1)N1CCc2ccc(-c3ccc(Cl)cc3F)cc2C1` [IX-23, (7-(4-chloro-2-fluorophenyl)-3,4-dihydroisoquinolin-2(1H)-yl)(pyrimidin-2-yl)methanone], for which the inhibition at 1 µM turned out to be 27%.
Consider `O=C(c1ncccn1)N1CCc2ccc(-c3ccc(Cl)c(F)c3)cc2C1` [IX-24, (7-(4-chloro-3-fluorophenyl)-3,4-dihydroisoquinolin-2(1H)-yl)(pyrimidin-2-yl)methanone], for which the inhibition at 1 µM was found to be 19%.
As to `Cc1nn(C)c(C)c1C(=O)N1CCc2ccc(-c3ccc(C(F)(F)F)cc3)cc2C1` [IX-26, (7-(4-(trifluoromethyl)phenyl)-3,4-dihydroisoquinolin-2(1H)-yl)(1,3,5-trimethyl-1H-pyrazol-4-yl)methanone], the inhibition at 1 µM was 15%.
The value for `CC(C)n1cc(C(=O)N2CCc3ccc(-c4ccc(C(F)(F)F)cc4)cc3C2)cn1` [IX-27, (1-isopropyl-1H-pyrazol-4-yl)(7-(4-(trifluoromethyl)phenyl)-3,4-dihydroisoquinolin-2(1H)-yl)methanone] was 18%.
